Source: ChEMBL document CHEMBL1125692 (J Med Chem, 1991)

Columns and labels:
[1] = target: T1, D(2) dopamine receptor (Rattus norvegicus, UniProt P61169); assay: Displacement of [3H]- spiperone from dopamine receptor D2 of striatal membranes without sodium chloride
[2] = target: T1, D(2) dopamine receptor; assay: Compound was evaluated for binding affinity towards dopamine receptor D2 in striatal membranes, using [3H]- spiperone as radioligand in the presence of sodium chloride; type: cell membranes
[3] = target: T2, Adrenergic receptor alpha-2 (Rattus norvegicus, UniProt P22086+P19328+P22909); assay: binding affinity towards alpha-2 adrenergic receptor, using [3H]- atipamezole as radioligand from rat frontal cortex membranes; type: tissue-based
T2 sequence (P22086 whole entry): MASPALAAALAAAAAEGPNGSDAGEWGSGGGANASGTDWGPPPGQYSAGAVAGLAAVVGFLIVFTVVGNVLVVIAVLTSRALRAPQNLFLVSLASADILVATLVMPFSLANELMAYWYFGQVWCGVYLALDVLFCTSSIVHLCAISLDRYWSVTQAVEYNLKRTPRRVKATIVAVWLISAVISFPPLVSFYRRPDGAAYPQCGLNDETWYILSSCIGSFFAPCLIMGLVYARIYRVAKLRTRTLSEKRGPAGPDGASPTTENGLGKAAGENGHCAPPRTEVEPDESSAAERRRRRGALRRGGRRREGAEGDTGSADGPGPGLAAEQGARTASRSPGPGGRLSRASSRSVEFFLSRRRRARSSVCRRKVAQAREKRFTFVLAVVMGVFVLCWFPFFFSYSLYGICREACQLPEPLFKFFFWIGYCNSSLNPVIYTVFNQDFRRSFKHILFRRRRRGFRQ
T2 sequence (P19328 whole entry): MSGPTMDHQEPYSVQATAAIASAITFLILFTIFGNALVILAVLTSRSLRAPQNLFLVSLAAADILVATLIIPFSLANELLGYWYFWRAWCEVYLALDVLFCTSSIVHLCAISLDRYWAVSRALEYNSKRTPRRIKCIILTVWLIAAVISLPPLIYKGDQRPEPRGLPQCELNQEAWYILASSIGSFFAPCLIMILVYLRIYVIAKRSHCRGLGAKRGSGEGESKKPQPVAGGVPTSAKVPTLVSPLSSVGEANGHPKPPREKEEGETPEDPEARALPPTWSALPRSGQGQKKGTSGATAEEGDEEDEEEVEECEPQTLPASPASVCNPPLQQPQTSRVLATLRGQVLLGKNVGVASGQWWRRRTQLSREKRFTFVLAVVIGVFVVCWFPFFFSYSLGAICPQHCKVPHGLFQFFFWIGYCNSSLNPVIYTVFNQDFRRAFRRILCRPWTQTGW
T2 sequence (P22909 whole entry): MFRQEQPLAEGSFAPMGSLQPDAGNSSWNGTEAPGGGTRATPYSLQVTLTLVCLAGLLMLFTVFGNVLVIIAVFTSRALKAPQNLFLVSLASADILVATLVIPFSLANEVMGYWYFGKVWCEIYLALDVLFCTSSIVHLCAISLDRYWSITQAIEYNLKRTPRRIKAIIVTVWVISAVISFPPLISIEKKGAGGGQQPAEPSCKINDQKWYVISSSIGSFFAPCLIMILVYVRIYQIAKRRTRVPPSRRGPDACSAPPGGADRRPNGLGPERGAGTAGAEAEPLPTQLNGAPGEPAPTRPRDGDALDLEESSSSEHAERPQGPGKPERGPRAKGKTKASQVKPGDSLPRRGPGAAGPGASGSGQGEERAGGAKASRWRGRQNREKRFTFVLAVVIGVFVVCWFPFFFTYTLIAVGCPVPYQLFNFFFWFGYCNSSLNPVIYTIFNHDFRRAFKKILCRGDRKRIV

T1 sequence (P61169 whole entry): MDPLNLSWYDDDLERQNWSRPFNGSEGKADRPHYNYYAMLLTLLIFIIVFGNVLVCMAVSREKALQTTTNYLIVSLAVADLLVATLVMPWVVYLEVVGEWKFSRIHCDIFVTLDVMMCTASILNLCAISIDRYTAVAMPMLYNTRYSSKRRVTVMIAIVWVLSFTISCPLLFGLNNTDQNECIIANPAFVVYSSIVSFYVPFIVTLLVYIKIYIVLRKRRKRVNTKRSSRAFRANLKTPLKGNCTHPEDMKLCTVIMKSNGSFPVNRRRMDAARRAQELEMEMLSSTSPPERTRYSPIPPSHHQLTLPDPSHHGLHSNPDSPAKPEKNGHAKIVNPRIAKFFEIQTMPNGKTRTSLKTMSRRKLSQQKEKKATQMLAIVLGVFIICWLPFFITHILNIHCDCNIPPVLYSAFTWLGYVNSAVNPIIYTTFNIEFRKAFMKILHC

| Structure (SMILES) | Ki [1] | Ki [2] | Ki [3] |
| --- | --- | --- | --- |
| CCN1CCC[C@@H]1CNC(=O)c1cc(CCF)cc(OC)c1OC | > 10000 nM | – | – |
| CCN1CCC[C@H]1CNC(=O)c1cc(CCF)cc(OC)c1OC | 5.27 nM | 1.41 nM | – |
| CCN1CCC[C@H]1CNC(=O)c1cc(Br)cc(OC)c1OC | 0.76 nM | 0.2 nM | – |
| CCN1CCC[C@H]1CNC(=O)c1cccc(OC)c1OC | 66 nM | – | – |
| CCCc1cc(OC)c(OC)c(C(=O)NC[C@@H]2CCCN2CC)c1 | 6.98 nM | – | – |
| CCN1CCC[C@H]1CNC(=O)c1cc(I)cc(OC)c1OC [EPIDEPRIDE] | – | 0.27 nM | 5 nM |

Continued, values first:

| Ki [1] | Ki [2] | Ki [3] | Structure (SMILES) |
| --- | --- | --- | --- |
| > 10000 nM | – | – | CCN1CCC[C@@H]1CNC(=O)c1c(O)c(CCCF)cc(OC)c1OC |
| 1.28 nM | – | – | CCCc1cc(OC)c(OC)c(C(=O)NC[C@@H]2CCCN2CC)c1O |
| 0.8 nM | 0.25 nM | 11.1 nM | CCN1CCC[C@H]1CNC(=O)c1c(O)c(CCCF)cc(OC)c1OC |
| 4.4 nM | 1.17 nM | – | CCN1CCC[C@H]1CNC(=O)c1cc(CCCF)cc(OC)c1OC |
| 0.77 nM | 0.24 nM | 9.5 nM | CCN1CCC[C@H]1CNC(=O)c1c(O)c(CCF)cc(OC)c1OC |
